# Active and inactive are the calls of the source. The calls are words filed in the database; no cut-off is given here.
# Columns and labels:
# [1] = target: T1, Phosphatidylinositol 3,4,5-trisphosphate 5-phosphatase 2 (Homo sapiens) (UniProt O15357); test: Binding affinity to recombinant human N-terminal His-tagged SHIP2 (419 to 832 residues) expressed in Escherichia coli Rosetta2 (DE3) cells assessed as increase in release of phosphate at 100 uM incubated for 10 mins by phosphate release assay
# T1 sequence (whole entry): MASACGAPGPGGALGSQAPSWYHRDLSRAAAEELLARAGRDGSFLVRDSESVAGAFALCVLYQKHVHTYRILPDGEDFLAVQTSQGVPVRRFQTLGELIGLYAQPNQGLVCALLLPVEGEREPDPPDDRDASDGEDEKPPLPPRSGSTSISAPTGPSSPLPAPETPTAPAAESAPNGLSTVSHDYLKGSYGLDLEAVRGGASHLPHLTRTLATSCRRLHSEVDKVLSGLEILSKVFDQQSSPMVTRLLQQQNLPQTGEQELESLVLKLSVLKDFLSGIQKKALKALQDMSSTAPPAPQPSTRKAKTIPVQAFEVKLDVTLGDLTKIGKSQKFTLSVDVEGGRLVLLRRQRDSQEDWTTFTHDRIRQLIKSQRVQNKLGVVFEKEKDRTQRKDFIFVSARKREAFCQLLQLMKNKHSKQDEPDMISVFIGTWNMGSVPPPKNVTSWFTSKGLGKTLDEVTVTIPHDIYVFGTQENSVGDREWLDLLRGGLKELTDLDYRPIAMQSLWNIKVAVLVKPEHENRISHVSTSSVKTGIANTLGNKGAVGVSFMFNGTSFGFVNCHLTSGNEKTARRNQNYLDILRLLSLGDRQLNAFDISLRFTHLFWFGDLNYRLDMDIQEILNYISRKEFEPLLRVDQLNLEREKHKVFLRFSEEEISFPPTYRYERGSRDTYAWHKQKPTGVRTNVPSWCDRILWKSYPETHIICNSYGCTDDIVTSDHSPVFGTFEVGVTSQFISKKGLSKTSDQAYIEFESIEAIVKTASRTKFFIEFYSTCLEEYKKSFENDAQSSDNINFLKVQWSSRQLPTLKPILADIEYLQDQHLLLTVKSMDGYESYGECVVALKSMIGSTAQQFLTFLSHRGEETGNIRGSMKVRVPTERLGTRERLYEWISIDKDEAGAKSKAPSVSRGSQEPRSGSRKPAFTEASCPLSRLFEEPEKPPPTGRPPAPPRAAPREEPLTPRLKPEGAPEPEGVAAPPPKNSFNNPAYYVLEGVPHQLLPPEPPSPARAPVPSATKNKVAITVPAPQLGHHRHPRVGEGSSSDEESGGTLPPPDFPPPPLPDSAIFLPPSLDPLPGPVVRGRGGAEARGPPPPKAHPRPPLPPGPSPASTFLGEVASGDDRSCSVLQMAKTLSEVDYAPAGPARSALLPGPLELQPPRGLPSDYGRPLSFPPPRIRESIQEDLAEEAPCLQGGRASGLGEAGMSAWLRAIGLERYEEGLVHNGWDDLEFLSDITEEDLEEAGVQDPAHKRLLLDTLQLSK
# [2] = target: Type II inositol 1,4,5-trisphosphate 5-phosphatase (Homo sapiens, UniProt P32019); test: Inhibition of recombinant human C-terminal His-tagged INPP5B (259 to 563 residues) expressed in Escherichia coli BL21 (DE3) incubated for 5 mins using Ins(1,4,5)P3 as substrate by malachite green reagent based phosphate assay
# Chain of Type II inositol 1,4,5-trisphosphate 5-phosphatase (P32019 whole entry, the tested form may be a part): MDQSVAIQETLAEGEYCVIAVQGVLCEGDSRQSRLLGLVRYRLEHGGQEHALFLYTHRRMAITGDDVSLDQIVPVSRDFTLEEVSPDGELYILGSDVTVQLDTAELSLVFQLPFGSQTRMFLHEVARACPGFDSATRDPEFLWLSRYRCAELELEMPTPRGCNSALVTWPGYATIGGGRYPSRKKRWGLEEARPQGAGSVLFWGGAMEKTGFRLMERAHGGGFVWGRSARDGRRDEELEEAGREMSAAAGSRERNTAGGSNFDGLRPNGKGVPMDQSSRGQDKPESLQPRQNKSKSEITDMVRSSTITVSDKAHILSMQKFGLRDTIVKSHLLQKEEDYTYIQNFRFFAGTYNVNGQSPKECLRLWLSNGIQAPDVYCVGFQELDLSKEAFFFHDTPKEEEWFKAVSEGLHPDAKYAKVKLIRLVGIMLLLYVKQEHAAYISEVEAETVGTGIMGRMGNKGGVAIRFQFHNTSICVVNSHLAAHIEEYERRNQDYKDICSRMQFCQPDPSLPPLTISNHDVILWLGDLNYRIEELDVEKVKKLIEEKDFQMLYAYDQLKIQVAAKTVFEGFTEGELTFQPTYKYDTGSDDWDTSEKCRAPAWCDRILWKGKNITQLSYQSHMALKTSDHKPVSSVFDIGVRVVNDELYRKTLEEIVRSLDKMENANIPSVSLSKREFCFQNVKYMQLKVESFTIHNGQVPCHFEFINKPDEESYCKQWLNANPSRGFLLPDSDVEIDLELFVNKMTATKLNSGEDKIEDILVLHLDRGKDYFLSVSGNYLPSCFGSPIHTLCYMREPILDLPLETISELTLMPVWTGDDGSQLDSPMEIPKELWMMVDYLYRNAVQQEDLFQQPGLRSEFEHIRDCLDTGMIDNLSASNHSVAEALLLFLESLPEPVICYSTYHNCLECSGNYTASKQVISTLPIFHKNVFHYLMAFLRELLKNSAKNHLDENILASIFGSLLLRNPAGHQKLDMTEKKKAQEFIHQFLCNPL
# [3] = target: T2, Phosphatidylinositol 3,4,5-trisphosphate 5-phosphatase 2 (Homo sapiens, UniProt O15357); test: Displacement of 2FAMInsP5 from recombinant human N-terminal His-tagged SHIP2 (419 to 832 residues) expressed in Escherichia coli Rosetta2 (DE3) cells by fluorescence polarization assay
# T2 sequence (O15357 whole entry): T1 sequence (whole entry)
# [4] = target: T2, Phosphatidylinositol 3,4,5-trisphosphate 5-phosphatase 2; test: Displacement of Ins(1,3,4,5)P4 from recombinant human N-terminal His-tagged SHIP2 (419 to 832 residues) expressed in Escherichia coli BL21 (DE3)
# [5] = target: T3, Inositol polyphosphate-5-phosphatase A (Homo sapiens, UniProt Q14642); test: Inhibition of recombinant human brain INPP5A expressed in Escherichia coli incubated for 10 mins by malachite green reagent based phosphate assay
# T3 sequence (Q14642 whole entry): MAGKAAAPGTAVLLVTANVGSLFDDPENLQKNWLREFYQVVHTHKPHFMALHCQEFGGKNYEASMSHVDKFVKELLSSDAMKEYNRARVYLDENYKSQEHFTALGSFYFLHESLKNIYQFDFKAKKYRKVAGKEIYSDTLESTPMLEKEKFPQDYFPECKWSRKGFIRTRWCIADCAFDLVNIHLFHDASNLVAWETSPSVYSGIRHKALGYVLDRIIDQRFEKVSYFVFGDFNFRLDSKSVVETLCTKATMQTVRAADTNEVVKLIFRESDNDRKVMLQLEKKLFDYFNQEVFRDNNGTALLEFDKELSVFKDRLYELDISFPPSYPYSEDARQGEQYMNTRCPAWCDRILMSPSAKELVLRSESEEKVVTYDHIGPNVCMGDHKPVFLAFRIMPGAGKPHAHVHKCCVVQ
# [6] = target: T1, Phosphatidylinositol 3,4,5-trisphosphate 5-phosphatase 2 (Homo sapiens); test: Substrate activity at recombinant human N-terminal His-tagged SHIP2 (419 to 832 residues) expressed in Escherichia coli Rosetta2 (DE3) cells assessed as 5-OH-Bz(1,2,4)P3 product formation at 100 uM incubated for 12 hrs by fluorescence based HPLC analysis
# [7] = target: T1, Phosphatidylinositol 3,4,5-trisphosphate 5-phosphatase 2 (Homo sapiens); test: Substrate activity at recombinant human N-terminal His-tagged SHIP2 (419 to 832 residues) expressed in Escherichia coli Rosetta2 (DE3) cells assessed as 5-OH-Bz(1,2,4)P3 product formation at 100 uM measured upto 4 hrs by fluorescence based HPLC analysis
# [8] = target: T1, Phosphatidylinositol 3,4,5-trisphosphate 5-phosphatase 2 (Homo sapiens); test: Substrate activity at recombinant human N-terminal His-tagged SHIP2 (419 to 832 residues) expressed in Escherichia coli Rosetta2 (DE3) cells assessed as 5-OH-Bz(1,2,4)P3 product formation at 100 uM incubated for 2 hrs by fluorescence based HPLC analysis
# [9] = target: T1, Phosphatidylinositol 3,4,5-trisphosphate 5-phosphatase 2 (Homo sapiens); test: Substrate activity at recombinant human N-terminal His-tagged SHIP2 (419 to 832 residues) expressed in Escherichia coli Rosetta2 (DE3) cells assessed as 5-OH-Bz(1,2,4)P3 product formation at 100 uM incubated for 2 hrs with 100 nM to 1 mM of SHIP2 by fluorescence based HPLC analysis
# [10] = target: T1, Phosphatidylinositol 3,4,5-trisphosphate 5-phosphatase 2 (Homo sapiens); test: Substrate activity at recombinant human N-terminal His-tagged SHIP2 (419 to 832 residues) expressed in Escherichia coli Rosetta2 (DE3) cells assessed as 5-OH-Bz(1,2,4)P3 product formation at 100 uM incubated for 2 hrs in presence of AS1949490 by fluorescence based HPLC analysis
# [11] = target: T1, Phosphatidylinositol 3,4,5-trisphosphate 5-phosphatase 2 (Homo sapiens); test: Substrate activity at recombinant human N-terminal His-tagged SHIP2 (419 to 832 residues) expressed in Escherichia coli Rosetta2 (DE3) cells assessed as 5-OH-Bz(1,2,4)P3 product formation at 100 uM incubated for 2 hrs in presence of INS(1,3,4,5)P4 by fluorescence based HPLC analysis
# [12] = target: T1, Phosphatidylinositol 3,4,5-trisphosphate 5-phosphatase 2 (Homo sapiens); test: Substrate activity at recombinant human N-terminal His-tagged SHIP2 (419 to 832 residues) expressed in Escherichia coli Rosetta2 (DE3) cells assessed as 3-OH-Bz(1,2,4)P3 product formation at 100 uM incubated for 2 hrs in presence of AS1949490 by fluorescence based HPLC analysis
# [13] = target: T1, Phosphatidylinositol 3,4,5-trisphosphate 5-phosphatase 2 (Homo sapiens); test: Substrate activity at recombinant human N-terminal His-tagged SHIP2 (419 to 832 residues) expressed in Escherichia coli Rosetta2 (DE3) cells assessed as 1,2-diOH-Bz(3,4)P2 product formation at 100 uM incubated for 2 hrs in presence of AS1949490 by fluorescence based HPLC analysis
# [14] = target: T1, Phosphatidylinositol 3,4,5-trisphosphate 5-phosphatase 2 (Homo sapiens); test: Substrate activity at recombinant human N-terminal His-tagged SHIP2 (419 to 832 residues) expressed in Escherichia coli Rosetta2 (DE3) cells assessed as 1,3-Di-OH-Bz(2,4)P2 product formation at 100 uM incubated for 2 hrs in presence of AS1949490 by fluorescence based HPLC analysis
SMILES,Activity [1],IC50 [3] [µM],IC50 [5] [µM],other results
O=P(O)(O)Oc1cccc(OP(=O)(O)O)c1OP(=O)(O)O,Active,14.2,86,IC50 [2]: 33.5 µM; IC50 [4]: > 1000 µM
O=P(O)(O)Oc1cc(OP(=O)(O)O)c(OP(=O)(O)O)cc1OP(=O)(O)O,Active,1.02,4,Activity [6]: Active; Activity [7]: Active; Activity [8]: Active; Activity [9]: Active; Activity [10]: inactive; Activity [11]: Active
O=P(O)(O)Oc1ccc(OP(=O)(O)O)c(OP(=O)(O)O)c1,Active,7.02,14,–
O=P(O)(O)Oc1cc(OP(=O)(O)O)cc(OP(=O)(O)O)c1,Active,11.3,16,–
O=P(O)(O)Oc1ccc(OP(=O)(O)O)c(OP(=O)(O)O)c1OP(=O)(O)O,Active,2.78,98,Activity [12]: inactive; Activity [13]: Active
O=P(O)(O)Oc1ccc(OP(=O)(O)O)c(OP(=O)(O)O)c1O,–,–,–,Activity [13]: Active; Activity [14]: inactive
O=P(O)(O)Oc1cc(OP(=O)(O)O)c(OP(=O)(O)O)c(OP(=O)(O)O)c1,Active,1.01,78,–

# Reference: ChEMBL document CHEMBL4342482 (ACS Med Chem Lett, 2020)
